From BindingDB's records for doi:10.1016/j.bmcl.2009.04.023 (Banyu Pharmaceutical, 2009) come the findings set out here.

In the assay the target is Nociceptin receptor (Homo sapiens, UniProt P41146). Briefly: In Vitro Binding Assay (IC50) and In Vitro Agonism/Antagonism Measurements (EC50/IC50). The following applies: pH 7.4; 37 °C. Here is the method: Compounds were tested for their inhibitory effects on ligand binding to the human ORL1 receptor. Bound and free radioligands are separated by filtration using a unifilter plate GF/C-96. The remaining radioactivity on the filter was counted using a TopCount-HTS (PerkinElmer). Specific binding of [125I][Tyr14]nociceptin is defined as the difference between total binding and nonspecific binding in the presence of 1 uM nociceptin. J-113397 was used as internal control across all assay plates for internal validation. IC50 values are calculated using GraphPad Prism. Agonist/antagonist activities were measured by the [35S]GTPgamma-S binding to proteins using membrane fractions of CHO cells expressing ORL1. Nonspecific binding is determined in the presence of 10 uM unlabeled GTPgammaS. Membrane-bound radioactivity is measured using a TopCount-HTS (PerkinElmer). Specific binding of [35S]GTPgammaS is determined as a difference between the control (in the presence of appropriate concentration of nociceptin), and the baseline (in the presence of DMSO instead of compound). EC50/IC50 values are calculated from % of specific binding in the presence of various concentration of the compound using GraphPad Prism 3.03.
Sequence of Nociceptin receptor (P41146 whole entry): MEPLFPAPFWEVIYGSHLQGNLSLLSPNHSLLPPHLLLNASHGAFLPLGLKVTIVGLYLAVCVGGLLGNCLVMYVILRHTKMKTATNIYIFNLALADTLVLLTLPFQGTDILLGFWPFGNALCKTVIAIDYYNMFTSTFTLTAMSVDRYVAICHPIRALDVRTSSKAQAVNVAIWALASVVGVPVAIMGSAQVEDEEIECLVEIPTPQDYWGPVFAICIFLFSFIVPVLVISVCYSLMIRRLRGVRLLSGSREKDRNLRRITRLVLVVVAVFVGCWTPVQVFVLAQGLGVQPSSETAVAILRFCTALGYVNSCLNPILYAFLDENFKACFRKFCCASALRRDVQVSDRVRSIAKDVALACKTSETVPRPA
Turning to `CCN1CCN(c2cc3[nH]c(C(=O)[C@]4(C)CC[C@@](C)(O)CC4)nc3cc2Cl)CC1` [2-Cyclohexylcarbonylbenzimidazole, 7c], the IC50 – broadly, the concentration at which inhibition is half-maximal – stood at 1.3 nM.
`CCN1CCN(c2cc3[nH]c(C(=O)C4(C)CCC(=O)CC4)nc3cc2Cl)CC1` [2-Cyclohexylcarbonylbenzimidazole, 9]: the concentration for half-maximal inhibition (IC50) amounted to 38 nM. Compared with the last compound, the IC50 is about 29-fold higher.
The figure for `CCN1CCN(c2cc3[nH]c(C(=O)[C@]4(C)CC[C@@H](NC(=O)OC)CC4)nc3cc2C)CC1` [2-Cyclohexylcarbonylbenzimidazole, 7b] is 5.3 nM; for `CCN1CCN(c2cc3[nH]c(C(=O)[C@]4(C)CC[C@@H](NC(=O)OC)CC4)nc3cc2Cl)CC1` [2-Cyclohexylcarbonylbenzimidazole, 7a] it is 7.5 nM; for `CCN1CCN(c2cc3[nH]c(C(=O)[C@]4(CC)CC[C@@](C)(O)CC4)nc3cc2Cl)CC1` [2-Cyclohexylcarbonylbenzimidazole, 7e] it is 2.4 nM.
